Assay [1] relates to Streptococcus mutans ATCC 35668 biofilms. Kind of assay: Immediate dispersal of stationary S. mutans biofilms, crystal violet, 1 minute treatment. It counts as cell-based. To be noted: 1.2% chlorhexidine, room temperature. How it is done: FIG. 11 depicts the immediate dispersal of Streptococcus mutans ATCC 35668 2-day old stationary biofilms treated with 100 μg/mL chitosan-arginine (43 kDa, 25% functionalized, 88% DDA, 2.28 PDI), water, or 1.2% Chlorhexidine. The biofilms were rinsed, stained with crystal violet and treated for 1 minute and rinsed.
The S. mutans biofilms were grown in 12-well untreated tissue culture plates containing BHI media supplemented with 1% sucrose for approximately 3 days. The biofilms were rinsed with water three times and stained with crystal violet for 2 minutes then rinsed three times (FIG. 11, ‘Before’). Water, 100 μg/ml chitosan-arginine or 1.2% chlorhexidine were used to treat each biofilm for 1 minute at room temperature (FIG. 11, ‘During’).

Assay [2] has as its system Streptococcus mutans (ATCC 35668). Kind of assay: Synergy of chitosan-arginine with chlorhexidine, remaining CFU after 1 hour. It counts as cell-based. On the procedure: Solutions of both agents were prepared at 4× their intended final concentration. Two concentrations for each agent are used for each assay and the drugs were combined in 4 ways: […] Controls of each drug alone as well as positive (S. mutans only) and negative (media only) controls were prepared. […] After incubation, the plates were centrifuged for 10 minutes at 4000 RPM on a microtiter plate rotor, before being resuspended, sonicated, diluted and plated on BHI for remaining CPU.

Structures are written as SMILES.

On to `[H]/N=C(\N/C(=N/[H])NCCCCCCNC(=N)NC(=N)Nc1ccc(Cl)cc1)Nc1ccc(Cl)cc1` [Chlorhexidine], for which the “biofilm after 1 minute treatment and rinsing” value in assay [1] is recorded as “removed from the surface”. The “Log CFU reduction beyond most active agent” value is 1.9 Log CFU in assay [2] (Chlorhexidine 0.00625% alone (C/A 0 μg/ml)) and 1.8 Log CFU in assay [2] (Chlorhexidine 0.0125% alone (C/A 0 μg/ml)).
